The results in this text go back to patent US20070243147A1, “Skin and/or Hair Composition Containing Compounds for Increasing The Tanning of Skin” (BEIERSDORF AG, priority 2004, published 2007).

The subject of this assay is primary normal human melanocytes. As to the kind of experiment: melanogenesis assay (14C-tyrosine incorporation) after 3 days of incubation. It counts as cell-based. To be noted: for melanogenesis rate (measured as 14C-tyrosine incorporation) based on the untreated control (=100%): 3 days incubation, primary normal human melanocytes, mean (X transverse), n=4. How it is done: A melanogenesis assay was carried out after 3 days of incubation of primary normal human melanocytes with test substance compared to control. The figures listed in the table give the melanogenesis rates (measured as ^14C-tyrosine incorporation) based on the untreated control (=100%). It results from this that the melanogenesis, i.e., the process of melanine synthesis, rises to 156% or 150% when the melanocytes are cultivated in the presence of the compound (I) (2E,3S,4R)-2,3,4-trimethyl-3-[(3E,7E,11E)-3,8,12,16-tetramethylheptadeca-3,7,11,15-tetraen-1-yl]cyclohexanone (n=4).
Furthermore, a melanogenesis assay was carried out after 3 days of incubation of primary normal human melanocytes with test substance compared to control. The figures listed in the table give the melanogenesis rates (measured as ^14C-tyrosine incorporation) based on the untreated control (=100%). It results from this that the melanogenesis, i.e., the process of melanine synthesis, rises to 135% or 113% when the melanocytes are cultivated in the presence of the preferred compound (III) (4E,8E,12E,16E)-3,7,11,15-tetrahydroxy-18-(hydroxymethyl)-2,4,6,10,14,16,20-heptamethyldocosa-4,8,12,16-teraenoic acid (n=4).

`CC(C)=CCC/C(C)=C/CC/C(C)=C/CC/C=C(\C)CC[C@@]1(C)[C@H](C)CCC(=O)[C@@H]1C` [compound (I), (2R,3S,4R)-2,3,4-trimethyl-3-[(3E,7E,11E)-3,8,12,16-tetramethylheptadeca-3,7,11,15-tetraen-1-yl]cylcohexanone]: the “melanogenesis rate (measured as 14C-tyrosine incorporation) based on the untreated control (=100%)” value by setting is: (0.1 μg/ml test substance) 150%; (1 μg/ml test substance) 156%.

For the molecule `CCC(C)CC(/C=C(\C)C(O)C(C)/C=C/C(O)C(C)/C=C/C(O)C(C)/C=C(\C)C(O)C(C)C(=O)O)CO` (centres unmarked) [compound (III), (4E,8E,12E, 16E)-3,7,11,15-tetrahydroxy-18-(hydroxymethyl)-2,4,6,10,14,16,20-heptamethyldocosa-4,8,12,16-tetraenoic acid], the “melanogenesis rate (measured as 14C-tyrosine incorporation) based on the untreated control (=100%)” value runs as follows: (0.1 μg/ml test substance) 153%; (1 μg/ml test substance) 172%. The “increase of the synthesis of melanin (result in words)” value (tests to increase the synthesis of melanin) is on record as “particularly advantageous”.
